Earlier results in patent publication US20150057617A1, “ANTI-MICROBIAL DRESSING, AN ANTI-MICROBIAL COMPOSITION AND USE THEREOF” (EMODIAL S.r.l., priority 2012, published 2015).

System: fibroblasts

## [H]/N=C(\N/C(=N/[H])NCCCCCCNC(=N)NC(=N)Nc1ccc(Cl)cc1)Nc1ccc(Cl)cc1 [chlorhexidine]
  cytotoxicity for fibroblasts: cytotoxic for fibroblasts
